Columns and labels:
[1] = system: Mycosphaerella arachidis (Cercospora arachidicola); assay: Mycosphaerella arachidis (Cercospora arachidicola) / liquid culture (early leaf spot); assay type: cell-based; conditions: 200 ppm in the formulation, PDB potato dextrose broth, 24° C., 4-5 days after application, vs untreated, read-out: disease control (inhibition of growth determined photometrically)
Experimental: (§1) Mycosphaerella arachidis (Cercospora arachidicola)/Liquid Culture (Early Leaf Soot) Conidia of the fungus from cryogenic storage are directly mixed into nutrient broth (PDB potato dextrose broth). After placing a (DMSO) solution of test compound into a microtiter plate (96-well format), the nutrient broth containing the fungal spores is added. The test plates are incubated at 24° C. and the inhibition of growth is determined photometrically 4-5 days after application.

[2] = system: Mycosphaerella graminicola (Septoria tritici); assay: Mycosphaerella graminicola (Septoria tritici) / liquid culture (Septoria blotch); assay type: cell-based; conditions: Zymoseptoria tritici; 200 ppm in the formulation; PDB potato dextrose broth, 24° C., 4 to 5 days after application, vs untreated; read-out: disease control (inhibition of growth determined photometrically)
Experimental: as §1, with “graminicola (Septoria tritici)/Liquid” for “arachidis (Cercospora arachidicola)/Liquid”, “(Septoria Blotch)” for “(Early Leaf Soot)”, “4 to 5” for “4-5”

[3] = system: Botryotinia fuckeliana (Botrytis cinerea); assay: Botryotinia fuckeliana (Botrytis cinerea) / liquid culture (gray mould); assay type: cell-based; conditions: 200 ppm in the formulation, Vogels broth, 24° C., 3-4 days after application, vs untreated, read-out: disease control (inhibition of growth determined photometrically)
Experimental: as §1, with “Botryotinia fuckeliana (Botrytis cinerea)/Liquid” for “Mycosphaerella arachidis (Cercospora arachidicola)/Liquid”, “(Gray Mould)” for “(Early Leaf Soot)”, “(Vogels” for “(PDB potato dextrose”, “3-4” for “4-5”

[4] = system: Monographella nivalis (Microdochium nivale); assay: Monographella nivalis (Microdochium nivale) / liquid culture (foot rot cereals); assay type: cell-based; conditions: 200 ppm in the formulation, PDB potato dextrose broth, 24° C., 4-5 days after application, vs untreated, read-out: disease control (inhibition of growth determined photometrically)
Experimental: as §1, with “Monographella nivalis (Microdochium nivale)/liquid culture (foot rot cereals)” for “Mycosphaerella arachidis (Cercospora arachidicola)/Liquid Culture (Early Leaf Soot)”

Pythium ultimum = Pythium ultimum / liquid culture (seedling damping off); assay type: cell-based; conditions: Globisporangium ultimum; 200 ppm in the formulation; PDB potato dextrose broth, 24° C., 2-3 days after application, vs untreated; read-out: disease control (inhibition of growth determined photometrically)
Experimental: Pythium ultimum/Liquid Culture (Seedling Damping Off) Mycelia fragments and oospores of a newly grown liquid culture of the fungus are directly mixed into nutrient broth (PDB potato dextrose broth). After placing a (DMSO) solution of test compound into a microtiter plate (96-well format), the nutrient broth containing the fungal mycelia/spore mixture is added. The test plates are incubated at 24° C. and the inhibition of growth is determined photometrically 2-3 days after application.

Plasmopara viticola = assay type: in vivo; conditions: 200 ppm in the formulation; grape vine leaf disks, inoculated 1 day after application, assessed 6 to 8 days after application, vs untreated
[5] = system: Glomerella lagenarium (Colletotrichum lagenarium); assay: Glomerella lagenarium (Colletotrichum lagenarium) / liquid culture (anthracnose); assay type: cell-based; conditions: Colletotrichum orbiculare; 200 ppm in the formulation; PDB potato dextrose broth, 24° C., 3 to 4 days after application, vs untreated; read-out: disease control (inhibition of growth measured photometrically)
Experimental: as §1, with “Glomerella lagenarium (Colletotrichum lagenarium)/Liquid” for “Mycosphaerella arachidis (Cercospora arachidicola)/Liquid”, “(Anthracnose)” for “(Early Leaf Soot)”, “measured” for “determined”, “3 to 4” for “4-5”

CC(OC(=O)[C@H](C)NC(=O)c1nccc(NC=O)c1O)C(c1ccc(F)cc1)c1ccc(F)cc1 (stereo partly drawn) [Compound I.a.42, [2,2-bis(4-fluorophenyl)-1-methyl-ethyl] (2S)-2-[(4-formamido-3-hydroxy-pyridine-2-carbonyl)amino] propanoate]
inhibition at 200 ppm [1]: ≥ 80% | inhibition at 200 ppm [2]: ≥ 80% | inhibition at 200 ppm [3]: ≥ 80% | inhibition at 200 ppm [4]: ≥ 80% | melting point: 101 to 113 °C | inhibition at 200 ppm (Pythium ultimum): ≥ 80% | disease control (Plasmopara viticola): at least 80%

CC(C)C(=O)OCOc1c(NC=O)ccnc1C(=O)N[C@@H](C)C(=O)OC(C)C(c1ccccc1)c1ccccc1 (stereo partly drawn) [Compound I.k.33, [4-formamido-2-[[(1S)-1-methyl-2-(1-methyl-2,2-diphenyl-ethoxy)-2-oxo-ethyl]carbamoyl]-3-pyridyl]oxymethyl 2-methylpropanoate]
inhibition at 200 ppm [1]: ≥ 80% | inhibition at 200 ppm [5]: ≥ 80% | inhibition at 200 ppm [2]: ≥ 80% | inhibition at 200 ppm [3]: ≥ 80% | inhibition at 200 ppm [4]: ≥ 80%

CC(C)C(=O)OCOc1c(NC=O)ccnc1C(=O)N[C@@H](C)C(=O)OC(C)C(c1ccc(F)cc1)c1ccc(F)cc1 (stereo partly drawn) [Compound I.k.42, [2-[[(1S)-2-[2,2-bis(4-fluorophenyl)-1-methyl-ethoxy]-1-methyl-2-oxo-ethyl]carbamoyl]-4-formamido-3-pyridyl]oxymethyl 2-methylpropanoate]
inhibition at 200 ppm [1]: ≥ 80% | inhibition at 200 ppm [5]: ≥ 80% | inhibition at 200 ppm [2]: ≥ 80% | inhibition at 200 ppm [3]: ≥ 80% | inhibition at 200 ppm [4]: ≥ 80%

CC(OC(=O)[C@H](C)NC(=O)c1nccc(N)c1O)C(c1ccc(F)cc1)c1ccc(F)cc1 (stereo partly drawn) [I.w.42, [2,2-bis(4-fluorophenyl)-1-methyl-ethyl] (2S)-2-[(4-amino-3-hydroxy-pyridine-2-carbonyl)amino]propanoate]
inhibition at 200 ppm [1]: ≥ 80% | inhibition at 200 ppm [5]: ≥ 80% | inhibition at 200 ppm [2]: ≥ 80% | inhibition at 200 ppm [3]: ≥ 80% | inhibition at 200 ppm [4]: ≥ 80%

CC(C)C(=O)OCOc1c(N)ccnc1C(=O)N[C@@H](C)C(=O)OC(C)C(c1ccccc1)c1ccccc1 (stereo partly drawn) [I.y.33, [4-amino-2-[[(1S)-1-methyl-2-(1-methyl-2,2-diphenyl-ethoxy)-2-oxo-ethyl]carbamoyl]-3-pyridyl] oxymethyl 2-methylpropanoate]
inhibition at 200 ppm [1]: ≥ 80% | inhibition at 200 ppm [2]: ≥ 80% | inhibition at 200 ppm [3]: ≥ 80% | inhibition at 200 ppm [4]: ≥ 80%

CC(C)C(=O)OCOc1c(N)ccnc1C(=O)N[C@@H](C)C(=O)OC(C)C(c1ccc(F)cc1)c1ccc(F)cc1 (stereo partly drawn) [I.y.42, [4-amino-2-[[(1S)-2-[2,2-bis(4-fluorophenyl)-1-methyl-ethoxy]-1-methyl-2-oxo-ethyl]carbamoyl]-3-pyridyl]oxymethyl 2-methylpropanoate]
inhibition at 200 ppm [1]: ≥ 80% | inhibition at 200 ppm [2]: ≥ 80% | inhibition at 200 ppm [3]: ≥ 80% | inhibition at 200 ppm [4]: ≥ 80%
